# Laboratory results from US20140037661A1, “Wheat Antigens and Peptides for Diagnosis of Wheat Induced Hypersensitivity” (PHADIA AB, priority 2011, published 2014).
# Test system: serum-IgA from CD patients
# Assay: IgA reactivity ELISA to synthetic GG1 peptides
# Assay type: binding, human
# Conditions: 5 μg/ml coated; n=8 CD, 2 CD on gluten free diet, 3 healthy controls; FIG. 16
# Experimental: ELISA plates were coated with 100 ul of 5 μg/ml of the 19 overlapping peptides, rGG1, alpha-gliadin peptide p56-75 and deamidated alpha gliadin peptide p56-75 (Q65E) and probed with serum-IgA from CD patients, CD patients on gluten free diet and healthy controls and detected using mouse anti-human IgA1/A2 and sheep anti-mouse IgG-HRP labelled antibody. Human serum albumin (HSA) was used as control (n=8 CD patients, 2 CD patients on gluten free diet and 3 healthy controls). […] Each of the synthetic GG1 peptides no.
sequence,measurement,value
QVMRQQCCQQLAQIPQQLQCA (listed as Triticum aestivum) [compound 13],IgA reactivity of celiac disease patients' serum,specific IgA reactivity
